The record followed here is paper PMC12670405, “Second-Generation AURKA-Targeting PROTACs: Structural Optimization toward in Vivo Degradation in Neuroblastoma” (Journal of Medicinal Chemistry, 2025).

In one series the target is T1, CRBN (Homo sapiens, UniProt Q96SW2).
T1 construct: purchased Eurofins Discovery
Description: CRBN binding assay (E3scan, Eurofins Discovery). On the procedure: (§1) AURKA, AURKB and CRBN binding assays were performed by Eurofins Discovery using the KdELECT Kinase Assay Panel (AURKA and AURKB), or the E3scan Ligand Binding Assay Technology (CRBN). More information can be found on the Eurofins Discovery Web site.
(§2) Graphs were generated using GraphPad Prism Software (version 10.1.2) or RStudio (R-4.3.2). All dose–response curves were computed on GraphPad Prism using the Variable Slope (four parameters) equation. Absolute half-maximal degradation (DC50), growth inhibitory (GI50) and enzymatic inhibitory (IC50) concentrations, as well as inhibition constants (Ki) were derived from dose–response curves via interpolation. Statistical tests were performed on GraphPad Prism and detailed in the figure legends. Unless otherwise stated, “n” in the figure legends indicates the number of independent experiments conducted at different times.

Another series can be described thus: Plasma stability assay. The format is in vitro ADME, CD-1 mouse. To be noted: for half-life at 1 μM: CD-1 mouse plasma, 37 °C, read-out: plasma t1/2. On the procedure:
(§3) Plasma and metabolic stability tests were performed by Eurofins Discovery. For the plasma stability assay, test compounds were incubated in CD-1 mouse plasma for 0, 0.5, 1, 1.5, and 2 h at 37 °C at a concentration of 1 μM. For the metabolic stability assay, test compounds were incubated at 37 °C in either (1) CD-1 mouse liver microsomes (MLM) (0.1 mg/mL) at a concentration of 0.1 μM for 0, 15, 30, 45, and 60 min or (2) CD-1 mouse hepatocytes (MH) (0.7 million viable cells/mL) at a concentration of 1 μM for 0, 0.5, 1, 1.5, and 2 h. At the respective time points, acetonitrile was added to the incubation mixture followed by centrifugation. Samples were analyzed by HPLC-MS/MS and peak areas were recorded for each analyte. Compound stability, expressed as the percentage of parent compound remaining, was calculated by comparing the peak area of the compound at each time point relative to that of the 0h time point. Percentage compound remaining is plotted as a function of time as a logarithmic curve. Half-life (t 1/2) is estimated from the slope of the initial linear range of the curve, assuming first-order kinetics. […] Both plasma and metabolic assay experiments were performed once with 2 replicate samples each.

Series [1] in a line: Metabolic stability in mouse hepatocytes (MH). Type of series: in vitro ADME, CD-1 mouse. The following applies: CD-1. On the procedure: as §3
Another series has as its system NGP. Description: IncuCyte live-cell imaging, antiproliferative effect. The following applies: Homo sapiens, 72 h. Type of series: cell-based. The essentials: (§4)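 Cells seeded in 384-well plates (neuroblastoma 1200–5000, HEK293T 600 cells/well), adhered overnight, then compound-treated in duplicate or triplicate; confluency tracked by IncuCyte live-cell imaging. Normalized confluence averaged from 3 experiments; absolute GI50 interpolated from four-parameter variable-slope curves.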

Series [2] has as its target T2, AURKA (Homo sapiens, UniProt O14965).
T2 sequence (O14965 1-403): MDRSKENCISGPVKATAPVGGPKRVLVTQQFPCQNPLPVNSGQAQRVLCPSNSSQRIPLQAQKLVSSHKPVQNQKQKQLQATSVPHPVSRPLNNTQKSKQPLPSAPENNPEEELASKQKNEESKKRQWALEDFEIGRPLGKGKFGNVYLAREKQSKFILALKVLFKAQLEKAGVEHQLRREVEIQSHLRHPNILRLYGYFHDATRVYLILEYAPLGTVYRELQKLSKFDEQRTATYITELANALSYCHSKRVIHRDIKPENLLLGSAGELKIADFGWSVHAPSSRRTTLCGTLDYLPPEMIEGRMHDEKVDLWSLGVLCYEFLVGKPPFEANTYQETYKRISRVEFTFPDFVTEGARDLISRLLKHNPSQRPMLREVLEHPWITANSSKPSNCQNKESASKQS
Description: AURKA degradation, Simple Western.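 As to AURKA Degradation 24h @1000nM: measured in NGP neuroblastoma cells.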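 As to AURKA Degradation 24h @100nM: measured in NGP neuroblastoma cells.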 Type of series: cell-based. On the set-up: Representative Western blot showing levels of endogenous proteins MDR1, MYCN, AURKA, and CRBN in untreated cell lines; endogenous in cells; host or cells: NGP, IMR-32, SJNB-8, SK-N-BE(2)-C, SK-N-SH, SK-N-AS, SJNB-1, RPE, HEK293T. The following applies: for pDC50: AURKA degradation; for DC50: read-out: AURKA DC50; for AURKA degradation (in words): IMR-32, 24h treatment. The essentials: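 Cells treated with compound in medium; lysed in RIPA and analysed by Simple Western (0.8 μg/μL lysate, 0.2 μg/μL for MYCN). Peak areas were normalized to vinculin, giving fold change versus DMSO (mean of 3 experiments); DC50 interpolated from four-parameter dose–response curves.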

The nature of series [3]: Metabolic stability in mouse liver microsomes (MLM). The format is in vitro ADME, CD-1 mouse. The following applies: CD-1. On the procedure:
as §3
(Liver microsomes are a subcellular fraction often used to study metabolism.)

Series [4] addresses T2, AURKA. Description: AURKA binding assay (KINOMEscan / KdELECT, Eurofins Discovery). On the set-up: purchased Eurofins Discovery. On the procedure:
as §1, §2

In another series the test system is IMR-32. Description: IncuCyte live-cell imaging, antiproliferative effect. The format is cell-based. The following applies: Homo sapiens, IMR-32, 72 h; read-out: GI50. An outline of the steps: as §4
Another series relates to MYCN. Description: MYCN protein levels, Simple Western. Type of series: cell-based, human. The following applies: IMR-32. On the procedure: Cells were seeded in T-25 flasks at different densities ranging from 1 to 2 million cells per flask and allowed to adhere for 1–2 days. In experiments involving compound treatment, this was done by medium replacement containing the compound(s) of interest in their corresponding concentrations. In competition binding experiments, cells were first pretreated with an excess of MK-5108, thalidomide or MG-132 for 1 h by shaking gently at room temperature prior to addition of SK4454 or SK5527. All samples were normalized to contain the same percentage of DMSO as the negative DMSO controls. Cells were harvested on ice at their respective time points by scraping, washed with ice-cold PBS to collect remaining cells, and centrifuged (2500 rpm, 4 °C). A second washing and centrifugation step was performed prior to collection of the final cell pellets which were then snap-frozen in liquid nitrogen and kept frozen at −80 °C until further processing. Lysis of cell pellets occurred in cold RIPA buffer (0.5% w/v Sodium Deoxycholate, 150 mM NaCl, 50 mM TrisHCl pH 7.5, 0.1% w/v SDS, 1% w/v NP-40) supplemented with protease and phosphatase inhibitors (Roche, #11836145001, #04906845001) by rotating gently at 4 °C for 1h, followed by a centrifugation step for 10 min (10,000 rpm, 4 °C). The supernatant was collected and concentrations of the obtained protein lysates were measured using the Pierce BCA Protein Assay Kit (Thermo Fisher Scientific, #23227).
Simple Western analyses were performed with the Wes instrument (Bio-Techne) using the 12–230 kDa Wes Separation module and the EZ standard pack reagent 1 (Biotechne, #SM-W001, #PS-ST01EZ-8) following the manufacturer’s protocol. Protein lysates were loaded at 0.8 μg/μL under denaturing conditions (0.2 μg/μL for MYCN detection). Chemiluminescence peaks were generated by the Compass Software (Bio-Techne) and the area under the peaks calculated using the Gaussian fit method. Per lane, quantified data were always normalized to that of the loading control (Vinculin) prior to calculating fold changes relative to the negative DMSO control. Mean fold changes are calculated from 3 individual experiments. A list of the primary and secondary antibodies used can be found in the Supporting Information (Supplementary Table S7).
as §2

Like-named read-outs stand apart in the source and are kept apart here. Where only a bound is given, the exact number is not on record here.

T1 sequence (Q96SW2 whole entry): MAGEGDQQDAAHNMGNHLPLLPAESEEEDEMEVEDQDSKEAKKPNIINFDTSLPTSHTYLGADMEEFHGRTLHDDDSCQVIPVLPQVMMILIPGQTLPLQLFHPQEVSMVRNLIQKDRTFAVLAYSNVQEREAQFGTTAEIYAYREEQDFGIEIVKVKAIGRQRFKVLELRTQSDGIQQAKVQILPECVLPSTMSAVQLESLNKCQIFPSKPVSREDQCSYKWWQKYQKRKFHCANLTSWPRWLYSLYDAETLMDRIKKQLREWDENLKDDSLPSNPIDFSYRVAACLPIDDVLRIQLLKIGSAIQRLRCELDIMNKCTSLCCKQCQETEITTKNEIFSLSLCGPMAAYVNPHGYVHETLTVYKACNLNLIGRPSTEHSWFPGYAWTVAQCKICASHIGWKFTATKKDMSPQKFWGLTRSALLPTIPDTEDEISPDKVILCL

One may read the Ki as a measure of affinity in units of concentration, obtained from inhibition or displacement. Read a low Ki as higher affinity. What is called hepatocyte CLint is the rate of metabolic loss divided by the concentration. A higher hepatocyte CLint goes with rapid turnover. In general, Dmax refers to the largest share of the target that was removed. Low values mean a partial loss of target, high ones a fuller loss of target. As a reminder, the DC50 is the concentration at which degradation of the target reaches its halfway point. One may read the microsomal CLint as the rate of metabolic loss divided by the concentration. High values mean rapid turnover, low ones slow turnover. The molecule `O=C1CCC(Nc2ccc(N3CCN(C4CN(C(=O)[C@]5(Cc6cccc(Nc7nccs7)n6)CC[C@@H](Oc6cccc(Cl)c6F)CC5)C4)CC3)nc2)C(=O)N1` (stereo partly shown) [PROTAC 20] showed a Ki at CRBN of 3180 nM. Moreover, in “Plasma stability assay”, the half-life at 1 μM is > 2 h and the “plasma t1/2” value is > 2 h. For the same molecule, the hepatocyte CLint at 1 μM in series [1] is < 4.1 µL/min/1e6 cells. For the same molecule, the GI50 in the series on NGP (read-out: GI50 72h, 72h) was 19 nM. Besides, in the series on NGP (read-out: pGI50 (converted)), the GI50 was 19.1 nM. Also, at AURKA [2], the “AURKA Degradation 24h @100nM” value is recorded as 90, the “AURKA Degradation 24h @1000nM” value is reported as 90, the pDC50 is listed as 8,76 and the DC50 was determined as 1.7 nM. Moreover, on AURKA [2] (NGP, 24 h treatment), the Dmax came to 94% and the DC50 stood at 2 nM. In series [3], this molecule showed an intrinsic clearance (microsomal CLint) at 0.1 μM of 738 µL/min/mg.

For `O=C1CCN(Cc2ccc(C3CCN(CC4CCN(C(=O)[C@]5(Cc6cccc(Nc7nccs7)n6)CC[C@@H](Oc6cccc(Cl)c6F)CC5)CC4)CC3)nc2)C(=O)N1` [PROTAC 21], the Ki at CRBN amounted to 455 nM. In addition, in the series “Plasma stability assay”, the half-life at 1 μM is > 2 h and the “plasma t1/2” value is > 2 h. In [1], the hepatocyte CLint at 1 μM is < 4.1 µL/min/1e6 cells. Moreover, the GI50 in the series with NGP (read-out: GI50 72h, 72h) came to 46 nM. In addition, the GI50 with NGP (read-out: pGI50 (converted)) was 45.7 nM. On AURKA [2], the “AURKA Degradation 24h @100nM” value turned out to be 78, the “AURKA Degradation 24h @1000nM” value worked out at 82, the pDC50 is given as 7,97 and the DC50 worked out at 10.8 nM. On AURKA [2] (NGP, 24 h treatment), the “AURKA degradation activity (in words)” value is reported as “slightly reduced degradation potency compared to SK2188” and the Dmax was 85%. The microsomal CLint at 0.1 μM in series [3] was 186 µL/min/mg.

Regarding `Cc1cc(N(C)c2ccc(F)c(CC3(C(=O)N4CCC(F)(CN5CCN(c6ccc(N7CCC(=O)NC7=O)cn6)CC5)CC4)CCN(Cc4cccc(Cl)c4F)CC3)n2)n[nH]1` [SK5527-AURi], at AURKA [4], the “AURKA binding (in words)” value is on record as “inability to bind”. Further, in the series on IMR-32, the GI50 is ~9000 nM. Besides, in the series with MYCN, the “MYCN destabilization (in words)” value is listed as “failed to destabilize MYCN”. The “AURKA degradation (in words)” value at AURKA [2] is “failed to degrade AURKA”.

For `Cc1cc(Nc2ccc(F)c(CC3(C(=O)N4CCC(F)(CN5CCN(c6ccc(N7CCC(=O)N(C)C7=O)cn6)CC5)CC4)CCN(Cc4cccc(Cl)c4F)CC3)n2)n[nH]1` [SK5527-CRBi], the “CRBN binding (in words)” value at CRBN is recorded as “inability to bind”. For the same molecule, in the series with IMR-32, the GI50 is ~500 nM. In addition, in the series on MYCN, the “MYCN destabilization (in words)” value is on record as “failed to destabilize MYCN”. On AURKA [2], the “AURKA degradation (in words)” value is recorded as “failed to degrade AURKA”.
